Reference: US20190160035A1, “METHOD OF TREATMENT” (QBIOTICS LIMITED, priority 2016, published 2019)

Key:
[1] = Example 1: safety evaluation (clinical parameters, adverse events graded by VCOG-CTCAE); format: in vivo, Canis lupus familiaris (dog)
Experimental: Clinical parameters such as bodyweight (kg), rectal temperature (° C.), heart rate (HR) per minute, respiratory rate (RR) per minute, general demeanor and body function (e.g. eating, drinking, urine and stools), were collected on each enrolled dog at screening, immediately pre-treatment, at approximately 2-4 and 24 hours post-treatment, and at 7(±2), 14(±2) and 28(±2) days post treatment. An adverse event (AE) was defined as any unfavorable and unintended sign, symptom, or disease temporally associated with the use of the drug, whether or not related to the product (VCOG-CTCAE, 2011). AE were graded according to the VCOG-CTCAE classification which is a descriptive severity scale (grade system) used for AE reporting in dogs treated with antineoplastic therapy.
With the exception of swelling and pain, local tissue pathology as a result of treatment (i.e. tumor necrosis) was not considered an adverse event (AE). AEs such as rapid breathing, mild tachycardia and post treatment lethargy are generally considered to be the result of the powerful local inflammatory response and systemic activation of the dog's immune response during the treatment response phase. In this study, 44 AEs were identified in 15 event types. The majority of identified AEs (28 out of 44; […]) were represented by the ‘mild’ VCOG-CTCAE classification Grade 1 with no intervention required. With the exception of dog C03-T-07, a level of minimal medical intervention was required in only 3 cases. […] With the exception of dog C03-T-07, all reported AEs were transient in nature—resolved by 24-48 h post treatment in the majority of cases.

[2] = system: cutaneous Mast Cell Tumor (MCT); assay: Example 3: long term follow up of cohort 1 dogs for tumor recurrence; format: in vivo
Experimental: The dogs of cohort 1 in Example 2, treated with 1.0 mg Compound 1 per mL, were followed up post-treatment.
Dog GCV-209 was treated by surgical removal of residual tumor soon after study completion (Day 21).

[3] = system: soft tissue sarcoma (STS); assay: Example 6: treatment of soft tissue sarcoma with intratumoral Compound 1, tumor response; format: in vivo, dogs; settings: per dog, Compound 1 1.0 mg/mL intratumoral, first treatment
Excerpt: Dogs were selected for the study if they met the criteria in Table 1 (Example 1) but where the dog has at least one STS. Study dogs were managed with due regard for their welfare. All animals were client-owned, treated by Australian registered veterinarians, and cases managed under their direct supervision. An enrolled dog could be removed from the study prior to study completion under the following circumstances: • 1. If at any time during the study, in the opinion of the attending veterinarian, the dog's welfare is at risk due to non-response of the tumor to Compound 1 treatment or due to a serious adverse event, the veterinarian could elect to withdraw the dog from the study. Following withdrawal, the dog's attending veterinarian could then administer supportive treatment and veterinary care that they deem is appropriate and in the best interest of the animal. • 2. […]
• 1. […] The total calculated volume of the selected STS was confirmed as ≤12.5 cm3 (determined as ½×length (cm)×width (cm)×depth (cm)). • 5. The calculated dose of drug for the dog was confirmed as ≤0.25 mg Compound 1 per kg at the Day 0 visit (maximum dose of 5 mg Compound 1). • 6. The drug was provided to veterinarians as a 1 mg/mL Compound 1 formulation in ready to use form. • 7. […] Treated tumors were observed regularly and observations recorded at days 1, 7 (+2), 14 (+2) and 28 (+2) days post-treatment. • 10. […]

[4] = system: MCT (cutaneous and subcutaneous); assay: Example 7: treatment of MCT (repeat of Example 1), complete response and healing by time point; format: in vivo, dogs; settings: for Complete response: Cumulative % / Complete response: Number of tumors on given study day: 11 treated tumors in 10 dogs; for Healing: Cumulative % / Healing: Number of tumor sites healed on given study day: 11 treated tumors
Experimental: The study of Example 1 was repeated. The drug used was Compound 1 formulated in 40% propylene glycol and 30 MM acetate buffer at pH 4.2.
While tumor evaluation and measurement data for 11 cases are presented, this actually represents only 10 dogs, one of which had two tumors treated consecutively (identified as cases SI-01 and SI-02). PK sampling was performed only once for this dog (SI-01).
Of the other ten tumors, nine were considered CR by day 7 (+2) and one was CR by day 14 (+2). The investigator also reported that all of these tumors remained a CR on day 28 […].
Healing was more variable for the cases, with one healed at the day 14 visit and over half the tumor sites healed by the day 28 visit. The two cases with the largest tumor volumes at day 0 (SI-04 5.6 cm^3, and SI-11 6.8 cm^3) required healing time beyond the day 28 visit, i.e., an additional four weeks for SI-04 and an additional 19.7 weeks for SI-11. For SI-11, it was noted the dog was licking the tumor site and the investigator felt it may have prolonged the healing time. The investigator believed the wound required intervention on this case that included debridement once on study day 56 followed by periodic bandage replacement.

C/C=C(\C)C(=O)O[C@@H]1[C@@H](C)[C@@]2(O)[C@H]([C@@H]3C(C)(C)[C@]13OC(=O)[C@@H](C)CC)[C@@H]1O[C@]1(CO)[C@@H](O)[C@]1(O)C(=O)C(C)=C[C@H]12 [Compound 1, 12-tigloyl-13-(2-methylbutanoyl)-6,7-epoxy-4,5,9,12,13,20-hexahydroxy-1-tigliaen-3-one]
Number of AEs identified ([1]; 12 dogs, 15 event types): 44
Share of AEs of VCOG-CTCAE Grade 1 ([1]; 28 out of 44): 61.3%
Dogs that died during the course of the study ([1]; dog C03-T-07, Day 4, veterinarian did not believe Compound 1 directly contributed): 1
Time by which reported AEs resolved post treatment ([1]; majority of cases, except dog C03-T-07): 24 to 48 h
Number of AEs of ‘mild’ VCOG-CTCAE Grade 1 (no intervention required) ([1]; out of 44 AEs): 28
Cases requiring minimal medical intervention ([1]; with the exception of dog C03-T-07): 3
Tumor recurrence at the treatment site during the post treatment examination period ([2]; 8 dogs, examined out to 11.9 to 15.0 months post treatment): No tumor recurrence
Tumor recurrence at case follow-up post treatment ([2]; cohort 1 dogs (1.0 mg/mL), one value per dog and examination, months 1-14 post treatment): Nil
Day on which tumor recurrence was reported ([2]; dog NVC-110, 42 days after study completion): 63 days
RECIST classification [3]: PR (partial response (PR, at least 30% decrease in the longest diameter of target lesion))
Response of the five cases with leakage of IVP upon injection ([4]; SI-01, SI-02, SI-04, SI-05, SI-10, on or before the day 14 visit): complete response
Complete response: Cumulative % ([4]; Study day 7 (+2)): 82%
Complete response: Number of tumors on given study day ([4]; Study day 7 (+2)): 9
Healing: Cumulative % ([4]; Study day 14 (+2)): 9%
Healing: Number of tumor sites healed on given study day ([4]; Study day 14 (+2)): 1
Complete response: Cumulative % ([4]; Study day 14 (+2)): 91%
Complete response: Number of tumors on given study day ([4]; Study day 14 (+2)): 1
Healing: Cumulative % ([4]; Study day 28 (+4)): 55%
Healing: Number of tumor sites healed on given study day ([4]; Study day 28 (+4)): 5
Healing: Cumulative % ([4]; Study day 33): 64%
Healing: Number of tumor sites healed on given study day ([4]; Study day 33): 1
Healing: Cumulative % ([4]; Study day 42): 73%
Healing: Number of tumor sites healed on given study day ([4]; Study day 42): 1
Healing: Cumulative % ([4]; Study day 56): 82%
Healing: Number of tumor sites healed on given study day ([4]; Study day 56): 1
Healing: Cumulative % ([4]; Study day 166): 91%
Healing: Number of tumor sites healed on given study day ([4]; Study day 166): 1
Change of tumor volumes after drug treatment ([4]; all tumors with the exception of SI-03): decreased in size
Course of MCT despite drug treatment ([4]; case SI-03, withdrawn after day 28 visit): continued to enlarge
Additional healing time beyond the day 28 visit ([4]; case SI-11, tumor volume 6.8 cm^3 at day 0, dog licking site, debridement day 56): 19.7 weeks
Status of the ten responding tumors on day 28 (+4) ([4]; investigator report): remained a CR
Number of tumors with a complete response (CR) during the study ([4]; of 11 tumors): Ten
Percent of tumors with a complete response (CR) during the study ([4]; of 11 tumors): 90.9%
Number of tumors considered CR by day 7 (+2) ([4]; of ten responding tumors): nine
Number of tumors CR by day 14 (+2) ([4]; of ten responding tumors, not CR by day 7): one
Number of cases healed at the day 14 visit ([4]; tumor site healing): one
Share of tumor sites healed by the day 28 visit ([4]; tumor site healing): over half
